Laboratory results published in US5187277A, “DL-3-[4-[4-(2-pyridyl)-1-piperazinyl]-butyl]-1,8,8-trimethyl-3-az abicyclo[(3]octane-2,4-dione having psychotropic and antiemetic effect” (priority 1990, dated 1993).
Counter-ions that a name gives are not always drawn. Like-named read-outs stand apart in the source and are kept apart here.

Columns and labels:
[1] = sedative activity, suppression of orientation behaviour; type: in vivo; details: ip, read-out: Sedative activity ED50, suppression of orientation behaviour
[2] = test system: rats (avoiding illuminated area tests); experiment: anxiolytic activity by the method of avoiding illuminated areas; type: in vivo; details: for minimal effective dose: Rattus norvegicus, read-out: Anxiolytic activity MED in "avoiding illuminated area" tests
Protocol: (§1) The compounds were introduced intraperitoneally and orally 20-60 minutes before the beginning of the test. The minimum effective doses (MED) increasing the number of water takings and increasing the period of staying in an illuminated area by at least 50%, were determined. The neuroleptic activity was detected and measured using the "rat fight" method and the "climbing" test of mice (P. Protais et al. Psychopharmacology, 50, p. 1, 1976). […] The antiemetic effect on vomiting caused by apomorphine or cisplatin was studied in pigeons (P. Presiosi et al., Arch. Int. Pharmacodyn., 298, p. 301, 1989) and mongrel dogs having a weight of 6-8 kg.

rat = experiment: antiaggressive activity ("rat fight" method); type: in vivo; details: for ED50: Rattus norvegicus, read-out: Antiaggressive activity ED50
Protocol: as §1

[3] = myorelaxation activity, rotating rod test; type: in vivo; details: for ED50: ip, read-out: Myorelaxation activity ED50
rats (conflict tests) = experiment: anxiolytic activity in conflict situation model; type: in vivo; details: for minimal effective dose: Rattus norvegicus, read-out: Anxiolytic activity MED in conflict tests
Protocol: as §1

[4] = sedative activity, suppression of motor activity (spontaneous locomotion); type: in vivo; details: for ED50: ip, read-out: Sedative activity ED50, suppression of motor activity
[5] = hexobarbital-potentiation effect (narcosepotentiation, nonnarcotic dose of hexobarbital); type: in vivo; details: for ED50: read-out: Hexobarbital-potentiation effect ED50
[6] = from Table 2
in vivo = details: ip
[7] = cataleptogenic (extrapyramidic) activity; details: in vivo
mongrel dogs [8] = experiment: antiemetic activity, vomiting caused by apomorphine in dogs; type: in vivo; details: Canis lupus familiaris; dog tests
Protocol: as §1

mongrel dogs [9] = experiment: antiemetic activity, vomiting caused by cisplatin in dogs; type: in vivo; details: Canis lupus familiaris; dog tests
Protocol: as §1

mice = experiment: antiapomorphine activity in "climbing" test of mice; type: in vivo; details: for ED50: Mus musculus, ip, read-out: Antiapomorphine activity in "climbing" test ED50
Protocol: as §1

pigeons [10] = experiment: antiemetic activity, vomiting caused by cisplatin in pigeons; type: in vivo; details: Columbidae, ip, read-out: Antiemetic activity, ED50
Protocol: as §1

pigeons [11] = experiment: antiemetic activity, vomiting caused by apomorphine in pigeons; type: in vivo; details: for ED50: Columbidae, ip, read-out: Antiemetic activity, ED50
Protocol: as §1

[12] = effect characteristic of tranquilizers and neuroleptics (anxiolytic, antiaggressive, antiapomorphine and hexobarbital-potentiation effects); type: in vivo; details: systematic application of dihydrochloride
Protocol: as §1

[13] = ip, rats, i/p, minimum effective dose increasing period of staying in illuminated area by at least 50%
[14] = po, rats, orally, minimum effective dose increasing period of staying in illuminated area by at least 50%
[15] = pigeons, vomiting caused by cisplatin, i/p
[16] = pigeons, vomiting caused by apomorphine, i/p
[17] = ip, rats, i/p, minimum effective dose increasing number of water takings by at least 50%, dihydrochlorides of I, VI, VII
[18] = po, rats, orally, minimum effective dose increasing number of water takings by at least 50%, dihydrochlorides of I, VI, VII

`CN1C(=O)CN=C(c2ccccc2)c2cc(Cl)ccc21` [Diazepame] gave an ED50 [1] of 0.6 ± 0.2 mg/kg, a minimal effective dose ([2]; ip) of 1 mg/kg and a minimal effective dose ([2]; po) of 1 mg/kg. The ED50 (rat; po) was 5.9 ± 1.28 mg/kg, the ED50 [3] was 2.4 ± 0.2 mg/kg and the minimal effective dose (rats (conflict tests); ip) was 1 mg/kg. For the same molecule, the ED50 [4] was 0.6 ± 0.2 mg/kg, the ED50 ([5]; ip) was 0.3 ± 0.1 mg/kg and the ED50 ([5]; po) was 0.48 ± 0.12 mg/kg.

With `CC12CCC(C(=O)N(CCCCN3CCN(c4ccccn4)CC3)C1=O)C2(C)C` (racemic) [Compound I, DL-3-[4-[4-(2-pyridyl)-1-piperazinyl]-butyl]-1,8,8-trimethyl-3-azabicyclo[3,2,1]octane-2,4-dione dihydrochloride] the “toxicity compared with diazepame” value [6] was “much lower than the activity and toxicity of diazepame”, the LD50 (in vivo) was 208 ± 20 mg/kg and the “cataleptogenic (extrapyramidic) activity” value [7] was “free of cataleptogenic (extrapyramidic) activity”. The ED50 (mongrel dogs [8]) was 0.02 ± 0.006 mg/kg, the ED50 ([1]; i/p) was 3.9 ± 0.9 mg/kg and the ED50 (mongrel dogs [9]) was 0.013 ± 0.005 mg/kg. The ED50 (mice; mice, i/p) was 0.7 ± 0.13 mg/kg, the “climbing test activity relative to buspirone and bicyclic imides” value (mice; climbing test) was “two to four times as large” and the “apomorphine antagonism in "climbing" test compared with haloperidol” value (mice; mouse, in vivo) was “comparable to haloperidol”. The minimal effective dose [2, 13] was 1 mg/kg, the minimal effective dose [2, 14] was 10 mg/kg and the “anxiolytic activity relative to compounds VI, VII” value ([2]; two anxiety models, intraperitoneally, avoiding illuminated area) was “three times as large”. For the same molecule, the ED50 (pigeons [10]; [15]) was 0.4 ± 0.07 mg/kg, the ED50 (pigeons [11]; [16]) was 0.11 ± 0.02 mg/kg and the “antiemetic effect relative to all comparable compounds (haloperidol, triphthazine, metoclopramide)” value (pigeons [11]; fold, versus haloperidol, triphthazine, metoclopramide, emetogen not specified (apomorphine or cisplatin)) was 10-100 times. The “antiemetic and antiapomorphine activities compared with other compounds” value (pigeons [11]; pigeons, from Table 3) was “substantially higher than those of other compounds”, the ED50 (rat; ip, i/p) was 7.45 ± 1.6 mg/kg and the ED50 (rat; po, orally) was 30.8 ± 4.14 mg/kg. The “antiaggressive activity relative to buspirone and bicyclic imides” value (rat; antiaggressive test) was “two to four times as large”, the “dose range producing anxiolytic, antiaggressive, antiapomorphine and hexobarbital-potentiation effects” value [12] was 0.1-50 mg/kg of a body weight and the “myorelaxation activity compared with diazepame” value ([3]; from Table 2) was “much lower than the activity and toxicity of diazepame”. It also gave an ED50 ([3]; i/p) of 44.5 ± 10 mg/kg, a minimal effective dose (rats (conflict tests); [17]) of 1 mg/kg and a minimal effective dose (rats (conflict tests); [18]) of 3 mg/kg. For the same molecule, the “antianxiety activity relative to buspirone and said bicyclic imides” value (rats (conflict tests); conflict situation model) was “three times as large”, the “anxiolytic doses compared with diazepame” value (rats (conflict tests); intraperitoneally) was “coincide with the similar doses of diazepame” and the “anxiolytic activity relative to compounds VI, VII” value (rats (conflict tests); two anxiety models, intraperitoneally, conflict test) was “three times as large”. For the same molecule, the “sedative activity compared with diazepame” value ([4]; from Table 2) was “much lower than the activity and toxicity of diazepame”, the ED50 ([4]; i/p) was 2.8 ± 0.7 mg/kg and the “hexobarbital-potentiating activity compared with diazepame” value ([5]; in vivo) was “essentially lower than the activity of diazepame”. For the same molecule, the ED50 ([5]; ip, i/p) was 17.6 ± 2.9 mg/kg and the ED50 ([5]; po, orally) was 12.5 ± 3.14 mg/kg.

Molecule `CCN(CC)CCNC(=O)c1cc(Cl)c(N)cc1OC` [Metoclopramide] has an ED50 (pigeons [10]; [15]) of 9.7 ± 1.1 mg/kg and an ED50 (pigeons [11]; [16]) of 12 ± 1.7 mg/kg.

In the case of `O=C1CC2(CCCC2)CC(=O)N1CCCCN1CCN(c2ncccn2)CC1` [VI, 8-[4-[4-(2-pyrimidinyl)-1-piperazinyl]butyl]-8-azaspiro[4,5]decane-7 ,9-dione], the LD50 (in vivo) is reported as 140 ± 20 mg/kg, the ED50 ([1]; i/p) is reported as 7.6 ± 1.9 mg/kg and the ED50 (mice; mice, i/p) is reported as 2.6 ± 0.46 mg/kg. The minimal effective dose [2, 13] was 3 mg/kg, the ED50 ([3]; i/p) was 54.2 ± 8.1 mg/kg and the minimal effective dose (rats (conflict tests); [17]) was 3 mg/kg. It also gave an ED50 ([4]; i/p) of 8.7 ± 1.8 mg/kg and an ED50 ([5]; ip, i/p) of 8.2 ± 2.4 mg/kg.

For `CC12CCC(C(=O)N(CCCCN3CCN(c4ncccn4)CC3)C1=O)C2(C)C` (racemic) [VII, DL-3-[4-(2-pyrimidinyl)-1-piperazinyl]-butyl]-1,8,8-trimethyl-3azabic yclo[3,2,1]octane-2,4-dione], the LD50 (in vivo) was 211 ± 31 mg/kg, the ED50 ([1]; i/p) was 7.7 ± 1.6 mg/kg and the ED50 (mice; mice, i/p) was 1.31 ± 0.15 mg/kg. It also gave a minimal effective dose [2, 13] of 3 mg/kg, a minimal effective dose [2, 14] of 10 mg/kg and an ED50 (pigeons [10]; [15]) of 4.6 ± 0.8 mg/kg. It also gave an ED50 (pigeons [11]; [16]) of 1.8 ± 0.4 mg/kg, an ED50 (rat; ip, i/p) of 28.5 ± 4.2 mg/kg and an ED50 (rat; po, orally) of 81.5 ± 8.3 mg/kg. It also gave an ED50 ([3]; i/p) of 52.5 ± 12 mg/kg, a minimal effective dose (rats (conflict tests); [17]) of 3 mg/kg and a minimal effective dose (rats (conflict tests); [18]) of 3 mg/kg. It also gave an ED50 ([4]; i/p) of 5.4 ± 2.3 mg/kg, an ED50 ([5]; ip, i/p) of 11.9 ± 2.2 mg/kg and an ED50 ([5]; po, orally) of 36.5 ± 8.11 mg/kg.

Work on `O=C(CCCN1CCC(O)(c2ccc(Cl)cc2)CC1)c1ccc(F)cc1` [Haloperidol] yielded an ED50 (mice) of 0.67 ± 0.06 mg/kg, an ED50 (pigeons [10]) of 4.4 ± 0.9 mg/kg and an ED50 (pigeons [11]) of 3.4 ± 0.5 mg/kg. For the same molecule, the minimal effective dose (rats (conflict tests); ip) was > 3 mg/kg.

For `CCN1CCCC1CNC(=O)c1cc(S(N)(=O)=O)ccc1OC` (centres unmarked) [Sulpyride], the ED50 (mice; mice, i/p) was 8.4 ± 1.3 mg/kg and the ED50 (rat; ip, i/p) was 60.6 ± 16.6 mg/kg.

`CN1CCN(CCCN2c3ccccc3Sc3ccc(C(F)(F)F)cc32)CC1` [Trifluoperazine] gave an ED50 (pigeons [10]; [15]) of 5.5 ± 0.9 mg/kg and an ED50 (pigeons [11]; [16]) of 4.6 ± 0.8 mg/kg.
